Test results reported in patent publication US20180218112A1, “MOLECULAR BASED DECISION SUPPORT SYSTEM FOR CANCER TREATMENT” (priority 2014, published 2018).

How the values were obtained:
[1] = Efficacy estimators of treatment alternatives reported in clinical trial studies; format: in vivo, patients; conditions: for NRS: Non Response Survival, NRS=RS−RTD; for RS: Response Survival, RS=OS+(1−CBR)·RTD; for RTD* months: duration of clinical benefit, from TTP or PFS and graphical KM considerations
Excerpt: Usually, in oncological studies we distinguish three reactions to a treatment well defined as their proportions are called: […]
ORR (Objective Response Rate which includes Partial Response and Complete Response) based on a percentage reduction of the tumor, PD (Progressive Disease) based on a percentage increase of the tumor and SD (Stable Disease) in which there is neither sufficient shrinkage to qualify for response, nor sufficient increase to qualify for progression.
Their proportion equals to ORR+SD and is called CBR (Clinical Benefit Rate).
OS (Overall Survival) is the median time from the treatment to death/loss of follow up.
RS (Response Survival) is the median time from response to death/loss of follow up in the responders group.
NRS (Non Response Survival) is the median time from the treatment to death/loss of follow up in the non-responders group.
The PFS (Progression Free Survival) or TTP (Time To Progression) is the median time from the treatment to the progression of the disease.
In the best case the DCB (Duration of Clinical Benefit) is also reported, which is the PFS of the participants defined like CBR.

[2] = Molecular Prediction of Response (MPR) for patient X; conditions: for CBR/P(Λ+): Bayesian estimation of P(Ω+|Λ+); for MPR: final Molecular Prediction of Response, patient X; for CBR + α · sd(CBR): heuristic estimate of P(Ω+|Λ+), MPR.QI=1
Excerpt: Now, the MPR (Molecular Prediction of Response) is based on molecular results of the tumor lab analysis like the following:
At first, we attribute to the patient a “qualitative MPR”: MPR·QI in {−1, 0, 1}
If we don't know about any molecular markers that can predict a clinical response, than: MPR·QI=0
If the molecular analysis predicts no clinical response: MPR·QI=−1, and if the molecular analysis predicts some clinical response (including stable disease) MPR·QI=1.
MPR·QI=−1=>we admit in a deterministic way that MPR=0+sd(CBR)
MPR·QI=1=>we distinguish 3 cases.
Λ−⇒Ω− (or Ω+⇒Λ+) • In the best case if the article gives P(Ω+|Λ+) we use it. • If we have relevant knowledge on P(Λ+) we use a Bayesian estimation
P(Ω+|Λ+)=CBR+α·sd(RR) (2.7)
where α=3 for chemotherapy treatments and 2 for biological treatments.
The molecular predictions of the subject with the appropriated efficacy estimators or prevalence estimator from clinico-molecular and epidemiologic studies give the whole information that we need to obtain the final MPR.

[3] = Adjusted Efficiency Values (AEV), pooling/ranking algorithm and efficiency grades for patient X; conditions: for subjOS: MPR·RS if MPR.QI=1 or MPR·NRS if MPR.QI=−1, table of three AEV by treatment name; for eff.OS: effOS=MPR·RS+(1−MPR)·NRS; for ART (pooled treatment group): sample-size weighted mean ART of the pooled treatments of the line, algorithm steps 1-6
Excerpt: At each step, we also calculate AEG (Adjusted Efficiency Grades) with its standard-error:
AEG is a vector of grades such that to the higher AEV component the equivalent AEG component is 10 and to the lower AEV component the equivalent AEG component is 1.
At each step j, 1≤j≤k−2, we represent two successive “old” treatments (or treatment groups) which bear some different efficiency values in the j−1 step, in one “new” treatment efficiency vales in the j step. This representation is described below (we refer to it by noting that we “pull” treatments' efficiencies and represent it as a different efficiency value): • We are pooling (AEV(l(j−1))^(j−1), AEV(l(j−1)+1)^(j−1)) as if both treatments were a single treatment with an “average Adjusted Efficiency Value”: AEV(l(j−1))^(j−1)
We retain also initial AEG and final AEG (the last step which is “necessary”). But to finally give the Total Efficiency Score (TES) we use the AEG^(J):
TES=0.5×AEGART^(J)+0.45×AEGeffOS^(J)+0.05×AEGsubjOS^(J) which is a vector for k−J treatments groups.
The three AEV are finally: the RTD adjusted or ART=RTD·MPR, the effOS and a subjective OS (we choose explicitly in which group the patient is) i.e.
From RTD (table 2), MPR (table 4), RS and NRS (table 3) we get our three AEV by
ART=MPR·RTD; effOS=MPR·RS+(1−MPR)·NRS;
subjOS=MPR·RS if MPR·QI=1 or MPR·NRS if MPR·QI=−1.
The alternatives (designated here by their references) are ordered by ascending ART, and CLR are computed
The ART are projected on the grade interval (1,10) and we get:
After the 3 algorithms are done we can summarize 3 grades for each alternative and the final grade is the weighted mean of them (The weights are 0.5 for ART, 0.45 for effOS and 0.05 for subjOS when available)

[4] = clinical trial study population, cited from earlier work; for CBR %: Clinical Benefit Rate (ORR+SD); for OS months: median overall survival; for RR %: response rate
[5] = cited from earlier work; for P(Ω+|Λ+): probability the treatment works given the marker exists, from clinico-molecular studies
[6] = ART=MPR·RTD, table of three AEV by treatment name
[7] = by treatment reference number, ordered ascending, algorithm steps 0-3
[8] = table of three AEV by treatment name

SMILES	NRS [1] [months]	RS [1] [months]	RTD* months [1] [months]	CBR/P(Λ+) [2]	MPR [2]	CBR + α · sd(CBR) [2]	ART [3, 6]	subjOS [3]	ART [3, 7]	eff.OS [3, 8]	ART (pooled treatment group) ([3]; listed as 2)	CBR % [4] [%]	OS months [4] [months]	RR % [4] [%]	P(Ω+|Λ+) [5]	ART (pooled treatment group) ([3]; listed as 1, step 2, pooled treatments 3 and 1)	ART (pooled treatment group) ([3]; listed as 1, step 3, pooled treatments 3, 1 and 6)	ART (pooled treatment group) ([3]; listed as 4)	CBR ([5]; printed in column CBR + α · sd(CBR), MPR.QI=0)
CN(C)C/C=C/C(=O)Nc1cc2c(Nc3ccc(F)c(Cl)c3)ncnc2cc1O[C@H]1CCOC1 [Afatinib]	12.54	16.07	3.5	–	–	–	–	–	–	–	–	–	–	–	–	–	–	–	–
CN(C)/N=N/c1[nH]cnc1C(N)=O [Dacarbasine]	7.21	9.12	1.9	24.42	44	23.66	0.779	4.011	0.836	6.4	0.7858	15	7.5	3	44	–	–	–	–
CO[C@H]1C[C@@H]2CC[C@@H](C)[C@@](O)(O2)C(=O)C(=O)N2CCCC[C@H]2C(=O)O[C@H]([C@H](C)C[C@@H]2CC[C@@H](OCCO)[C@H](OC)C2)CC(=O)[C@H](C)/C=C(\C)[C@@H](O)[C@@H](OC)C(=O)[C@H](C)C[C@H](C)/C=C/C=C/C=C/1C [Everolimus]	5.32	7.12	1.8	53.97	53.97	49.06	2.4	9.077	0.971	11.03	–	32.4	5.9	0	–	–	–	–	–
Cc1nc2ccc(CN(C)c3ccc(C(=O)N[C@@H](CCC(=O)O)C(=O)O)s3)cc2c(=O)[nH]1 [Raltitrexed]	6.68	11.48	4.8	31.01	50	30.97	–	3.841	2.4	6.288	–	15	7.4	0	50	2.275	2.387	–	–
CNC(=O)c1cc(Oc2ccc(NC(=O)Nc3ccc(Cl)c(C(F)(F)F)c3)c(F)c2)ccn1 [Regorafenib]	5.62	7.52	1.9	–	41	–	0.971	–	0.779	7.335	–	41	6.4	1	–	–	–	0.7858	41 (CBR)
O=C1NC(=O)[C@@H](c2cn3c4c(cccc24)CCC3)[C@@H]1c1c[nH]c2ccccc12 [Tivantinib]	5.99	8.69	2.7	–	–	–	–	–	–	–	–	–	–	–	–	–	–	–	–
